Assay results as given in publication PMC9734138, “Structure of the AlgKX modification and secretion complex required for alginate production and biofilm attachment in Pseudomonas aeruginosa” (Nature Communications, 2022).
“And” between values parts separate entries of the source, which are not always exact repeats. Equal entries are not always repeated.

Key:
[1] = biological target: T1, AlgXPp (Pseudomonas putida, UniProt Q88ND0); assay: Acetylesterase activity assay, pNP-acetate, AlgXPp; assay type: biochemical; design: His6 (C); made in house; host or cells: E. coli Lemo21 (DE3); details: pNP-acetate pseudosubstrate; sample as labelled (AlgX alone, Man10 alone, AlgX+Man10); single technical replicates
Procedure: (§1) The assay was performed as previously described in refs. [19], [29] with minor modifications. Briefly, standard reactions contained 5 μM protein (AlgKPp, AlgXPp, or AlgKPp-AlgXPp complex) in 50 mM sodium HEPES pH 7.0 and 75 mM NaCl. Reactions were initiated with the addition of pNP-acetate dissolved in ethanol to 2.5 mM. Alginate substrates were added at a final concentration of 0.5 mg/mL. Alginate substrates were purified as previously described[62] from FRD1[66] and FRD462[67]. The hydrolysis and removal of an acetate group from pNP-acetate was monitored in real-time for 10 min at 405 nm for the appearance of p-nitrophenyl. The background hydrolysis rate of pNP-acetate in the absence of enzymes was measured and subtracted from reaction rates. For Supplementary Fig. 11b, a similar assay was performed as previously described in ref. [19], with minor modifications. Briefly, Briefly, standard reactions contained 5 μM protein (AlgKPp, AlgXPp, or AlgKPp-AlgXPp complex) in 50 mM sodium HEPES pH 7.0 and 75 mM NaCl. […] The hydrolysis and removal of an acetate group from 3-carboxyumbelliferyl acetate was monitored in real-time for 10 min using an excitation of 386 nm and an emission of 447 nm. The background hydrolysis rate of 3-carboxyumbelliferyl acetate in the absence of enzymes was measured and subtracted from reaction rates. Data were analysed using GraphPad Prism 9 (Dotmatics).
Target sequence in this assay (Q88ND0 25-479): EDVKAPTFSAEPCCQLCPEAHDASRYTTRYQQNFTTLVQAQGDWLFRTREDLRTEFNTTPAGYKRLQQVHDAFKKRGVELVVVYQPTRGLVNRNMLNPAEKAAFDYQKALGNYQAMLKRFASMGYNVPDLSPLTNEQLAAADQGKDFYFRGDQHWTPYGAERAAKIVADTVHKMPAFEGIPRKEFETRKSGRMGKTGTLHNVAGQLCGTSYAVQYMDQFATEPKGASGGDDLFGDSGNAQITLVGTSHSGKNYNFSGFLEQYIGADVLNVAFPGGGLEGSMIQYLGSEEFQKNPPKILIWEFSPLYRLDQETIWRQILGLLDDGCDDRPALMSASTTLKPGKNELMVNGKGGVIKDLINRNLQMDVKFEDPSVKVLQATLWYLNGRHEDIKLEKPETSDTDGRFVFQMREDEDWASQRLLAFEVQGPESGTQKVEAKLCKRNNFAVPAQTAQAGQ

[2] = biological target: T1, AlgXPp; assay: Acetylesterase activity assay, 3-carboxyumbelliferyl acetate, AlgX; assay type: biochemical; design: His6 (C); made in house; host or cells: E. coli Lemo21 (DE3); details: AlgX alone; linear regression of raw values minus buffer blank vs time (s); exp1 and exp2, triplicates; Supp. Fig. 14b
Procedure: as §1
Target sequence in this assay (Q88ND0 25-479): as above

[3] = biological target: T2, AlgKXPp complex (Pseudomonas putida, UniProt Q88NC7+Q88ND0); assay: ESI-MS alginate binding assay, AlgKXPp complex (binding model fit); details: for Ka (M^−1) (AlgKXPp), apparent association constant: ESI-MS, 200 mM aqueous ammonium acetate, pH 7, 25 °C, errors one standard deviation; for fraction of AlgKXPp bound to ligand: ammonium acetate (200 mM, pH 7.0), mean, n = 3
T2 construct: Induced cells containing either pET26b P. putida AlgK^33–484 or pET24b P. putida AlgX^∆Nterm; His6 (C); made in house; host or cells: E. coli BL21 (DE3) CodonPlus (AlgK) and E. coli Lemo21 (DE3) (AlgX)
T2 sequence (Q88ND0 25-479): as above
T2 sequence (Q88NC7 33-484): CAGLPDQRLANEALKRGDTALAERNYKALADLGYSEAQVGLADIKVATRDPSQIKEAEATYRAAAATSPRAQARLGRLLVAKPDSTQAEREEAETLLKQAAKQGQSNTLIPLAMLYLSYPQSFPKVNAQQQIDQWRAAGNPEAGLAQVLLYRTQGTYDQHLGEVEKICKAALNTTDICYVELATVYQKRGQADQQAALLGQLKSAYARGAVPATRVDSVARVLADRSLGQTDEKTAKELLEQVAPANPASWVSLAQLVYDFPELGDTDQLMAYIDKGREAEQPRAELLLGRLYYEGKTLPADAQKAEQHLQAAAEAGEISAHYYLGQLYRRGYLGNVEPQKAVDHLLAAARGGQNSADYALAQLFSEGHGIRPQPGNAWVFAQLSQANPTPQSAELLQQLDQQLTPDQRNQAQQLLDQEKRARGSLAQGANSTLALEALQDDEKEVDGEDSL
Procedure: (§2) AlgXPp and AlgKPp stock solutions were buffer exchanged into 200 mM aqueous ammonium acetate (pH 7) using a 10 kDa cut-off Amicon 0.5 mL microconcentrators (EMD, Millipore, Billerica, MA). Stock solutions of oligosaccharides were prepared by dissolving a known amount of solid compound in Milli-Q water and stored at −20 °C until used. Nanoelectrospray (nanoESI) mass spectrometry measurements were performed on a Q Exactive Orbitrap (Orbitrap) mass spectrometer (Thermo Fisher Scientific, Bremen, Germany) and on a Q Exactive Ultra-High Mass Range Orbitrap mass spectrometer (Thermo Fisher Scientific, Bremen, Germany), both equipped with a nanoflow ESI source. NanoESI was performed by applying a voltage of ~0.8 kV to a platinum wire inserted into the nanoESI tip, which was produced from a borosilicate glass capillary (1.0 mm o.d., 0.78 mm i.d.) pulled to ~2 μm o.d. using a P − 1000 micropipette puller (Sutter Instruments, Novato, CA). The inlet capillary of the MS was heated to 120 °C, the S-lens RF level was set at 100, automatic gain control target was set at 1 × 10^6 with a maximum injection time of 200 ms. All MS data were acquired and processed using Thermo Xcalibur 4.1 software.
(§3) 3b AlgXPpL⇌AlgXPp+L,Ka,xL=[AlgXPpL]/AlgXPp[L] 3c AlgKXPp⇌AlgKPp+AlgXPp,Ka,kx=[AlgKXPpL]/AlgKPp[AlgXPp] 3d AlgKXPpL⇌AlgKXPp+L,Ka,kxL=[AlgKXPL]/AlgKXPpLL
(§4) The corresponding mass balance equations are shown below:4a [L]0=[L]+[AlgKPpL]+[AlgXPpL]+[AlgKXPpL] 4b [AlgKPp]0=[AlgKPp]+[AlgKPpL]+[AlgKXPp]+[AlgKXPpL] 4c [AlgXPp]0=[AlgXPp]+[AlgXPpL]+[AlgKXPp]+[AlgKXPpL] where […], […], and [L]0 are initial concentrations of AlgKPp, AlgXPp, and oligosaccharide ligand L; Ka,kL, Ka,xL, and Ka,kx are association constant values determined as described above, and Ka,kxL is unknown parameter found by the fitting of the model to experimental data.

[4] = biological target: AlgKXPp (Pseudomonas putida, UniProt Q88NC7+Q88ND0); assay: NanoESI-MS ligand titration of the AlgK-AlgX mixture, Ka,kxL fitted from the ligand-bound fraction of the complex with a coupled-equilibria model, 200 mM aqueous ammonium acetate pH 7, 25 °C by the table title (21 °C in the methods).; assay type: binding; details: n = 3; read-out: Ka (M^-1) (AlgKXPp)
Chain of AlgKXPp (Q88ND0 whole entry): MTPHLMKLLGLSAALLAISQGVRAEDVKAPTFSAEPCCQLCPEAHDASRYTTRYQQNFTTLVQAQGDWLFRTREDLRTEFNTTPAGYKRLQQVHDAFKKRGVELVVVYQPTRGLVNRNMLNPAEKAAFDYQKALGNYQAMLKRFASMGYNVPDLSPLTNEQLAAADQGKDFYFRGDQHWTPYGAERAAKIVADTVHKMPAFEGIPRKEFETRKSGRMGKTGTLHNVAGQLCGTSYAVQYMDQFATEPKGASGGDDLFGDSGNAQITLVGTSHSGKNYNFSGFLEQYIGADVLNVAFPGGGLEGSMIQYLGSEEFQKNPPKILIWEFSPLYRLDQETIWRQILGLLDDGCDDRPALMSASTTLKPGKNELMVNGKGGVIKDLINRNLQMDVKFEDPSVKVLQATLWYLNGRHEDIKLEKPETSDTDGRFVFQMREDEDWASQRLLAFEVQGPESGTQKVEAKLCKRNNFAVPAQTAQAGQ
Chain of AlgKXPp (Q88NC7 33-484): as the sequence (Q88NC7 33-484) above
Procedure: as §2
The Ka,kx for the interaction of AlgKPp and AlgXPp with the formation of AlgKXPp complex was obtained using the Slow Mixing Mode (SLOMO) ESI-MS assay. Briefly, ~2 µL of a solution of AlgXPp (5 µM) and AlgKPp (3–10 µM) was introduced into the nanoESI tip, followed by injection of 10 µL of solution of AlgXPp (5 µM) and AlgKPp (45 µM). The binding measurements were carried out at 21 °C; time-resolved mass spectra were averaged over 1 min intervals and the sum of the charge state-normalized abundances of the […] and AlgKXPp complex ions were calculated automatically using the SWARM software (https://github.com/pkitov/CUPRA-SWARM)[72]. The corrected (for response factors) abundances of AlgXPp and AlgKXPp species were used to calculate R/(R+1) values for AlgKPp (designated as L) and AlgXPp (designated as P) interaction and association constant Ka,kx was found using Eq. (1) (Ka,kx in this case designated as Ka in Eq. (1)).
as §3, §4

[5] = biological target: T3, AlgKPp (Pseudomonas putida, UniProt Q88NC7); assay: Direct nanoESI-MS binding assay of the single proteins with reference protein correction for nonspecific binding, 200 mM aqueous ammonium acetate pH 7, 25 °C by the table title (21 °C in the methods).; design: gene algK; details: read-out: Ka (M^-1) (AlgKPp); Ka (M^-1) (AlgXPp)
T3 sequence (Q88NC7 33-484): as above
Procedure: as §2
(§5) Association constants (Ka,kL and Ka,xL) for interactions of AlgKPp and AlgXPp with oligosaccharide ligands were obtained using the direct ESI-MS assay[68],[69]. The binding measurements were carried out at 21 °C, and the equilibrium mixtures were prepared by mixing aliquots of the stock solutions of proteins and ligands in aqueous ammonium acetate (200 mM). ESI-MS measurements were performed after a 1 h incubation time period. All mass spectra were corrected, when needed, for the occurrence of nonspecific carbohydrate-protein binding during the ESI process using the reference protein method. Ka,kL and Ka,xL values were determined from the abundance ratio (R) of the ligand-bound (PL) to free protein (P) ions (P can be AlgKPp or AlgXPp), after correction for nonspecific ligand binding, and the initial concentrations of protein ([P]0) and ligand ([L]0), Eq. (1):1 R/R+1=KaP0+KaL0+1−(1−KaL0+KaP0)^2+4KaL0/2KaP0 where R is taken to be equal to the corresponding equilibrium concentration ratio ([PL]/[P]) in solution, Eq. (2):2 R=∑Ab(PL)/∑Ab(P)=[PL]/[P] and Ka is Ka,kL or Ka,xL.

[6] = biological target: T1, AlgXPp; assay: as above; design: gene algX; details: read-out: Ka (M^-1) (AlgKPp); Ka (M^-1) (AlgXPp)
Procedure: as §2, §5
Target sequence in this assay (Q88ND0 whole entry): as the sequence (Q88ND0 whole entry) above

[7] = biological target: T1, AlgXPp; assay: Direct ESI-MS alginate binding assay, AlgXPp; design: His6 (C); made in house; host or cells: E. coli Lemo21 (DE3); details: 200 mM aqueous ammonium acetate, pH 7, 25 °C, errors one standard deviation
Procedure: (§6) AlgXPp and AlgKPp stock solutions were buffer exchanged into 200 mM aqueous ammonium acetate (pH 7) using a 10 kDa cut-off Amicon 0.5 mL microconcentrators (EMD, Millipore, Billerica, MA). Stock solutions of oligosaccharides were prepared by dissolving a known amount of solid compound in Milli-Q water and stored at −20 °C until used. Nanoelectrospray (nanoESI) mass spectrometry measurements were performed on a Q Exactive Orbitrap (Orbitrap) mass spectrometer (Thermo Fisher Scientific, Bremen, Germany) and on a Q Exactive Ultra-High Mass Range Orbitrap mass spectrometer (Thermo Fisher Scientific, Bremen, Germany), both equipped with a nanoflow ESI source. […]
(§7) Association constants (Ka,kL and Ka,xL) for interactions of AlgKPp and AlgXPp with oligosaccharide ligands were obtained using the direct ESI-MS assay[68],[69]. […] Ka,kL and Ka,xL values were determined from the abundance ratio (R) of the ligand-bound (PL) to free protein (P) ions (P can be AlgKPp or AlgXPp), after correction for nonspecific ligand binding, and the initial concentrations of protein ([P]0) and ligand ([L]0), Eq. (1):1 R/R+1=KaP0+KaL0+1−(1−KaL0+KaP0)^2+4KaL0/2KaP0 where R is taken to be equal to the corresponding equilibrium concentration ratio ([PL]/[P]) in solution, Eq. (2):2 R=∑Ab(PL)/∑Ab(P)=[PL]/[P] and Ka is Ka,kL or Ka,xL.
Target sequence in this assay (Q88ND0 25-479): as the sequence (Q88ND0 25-479) above

[8] = biological target: T3, AlgKPp; assay: Direct ESI-MS alginate binding assay, AlgKPp; design: Induced cells containing either pET26b P. putida AlgK^33–484 or pET24b P. putida AlgX^∆Nterm; His6 (C); made in house; host or cells: E. coli BL21 (DE3) CodonPlus; details: 200 mM aqueous ammonium acetate, pH 7, 25 °C, errors one standard deviation, nb = no binding detected
Procedure: as §6, §7

[9] = initial ligand concentration 50 µM
[10] = initial ligand concentration 100 µM
[11] = initial ligand concentration 155 µM
[12] = initial ligand concentration 211 µM
[13] = initial ligand concentration 265 µM
[14] = initial ligand concentration 322 µM

Row | Compound | slope values: rate of acetylesterase activity, absorbance value at 405 nm per second [1] | slope values used in graph [2] | Ka (M^−1) (AlgKXPp), apparent association constant [3] | fraction of AlgKXPp bound to ligand [3, 9] | fraction of AlgKXPp bound to ligand [3, 10] | fraction of AlgKXPp bound to ligand [3, 11] | fraction of AlgKXPp bound to ligand [3, 12] | fraction of AlgKXPp bound to ligand [3, 13] | fraction of AlgKXPp bound to ligand [3, 14] | Kd [4] | Kd [5] | Kd [6] | Ka (M^−1) (AlgXPp), apparent association constant [7] | Ka (M^−1) (AlgKPp), apparent association constant [8]
1 | AlgX: P. putida KT2440 AlgX 1–479, His-tagged terminal alginate acetyltransferase | 5.128e-5 and 6.734e-5 and 4.103e-5 | 20818 and 20884 and 19338 and 14321 and 14083 and 15487 |  |  |  |  |  |  |  |  |  |  |  | 
2 | CCCO[C@@H]1O[C@H](C(=O)O)[C@@H](O[C@@H]2O[C@H](C(=O)O)[C@@H](O[C@@H]3O[C@H](C(=O)O)[C@@H](O[C@@H]4O[C@H](C(=O)O)[C@@H](O[C@@H]5O[C@H](C(=O)O)[C@@H](O[C@@H]6O[C@H](C(=O)O)[C@@H](O)[C@H](O)[C@@H]6O)[C@H](O)[C@@H]5O)[C@H](O)[C@@H]4O)[C@H](O)[C@@H]3O)[C@H](O)[C@@H]2O)[C@H](O)[C@@H]1O [ManA6] |  |  | (7.8 ± 0.8) × 10^2 M^−1 | 0.04 | 0.08 | 0.11 | 0.11 | 0.16 | 0.22 | 1.28 mM | 3.23 mM | 5.26 mM | (1.9 ± 0.7) × 10^2 M^−1 | (3.1 ± 0.5) × 10^2 M^−1
3 | CCCO[C@@H]1O[C@H](C(=O)O)[C@@H](O[C@@H]2O[C@H](C(=O)O)[C@@H](O[C@@H]3O[C@H](C(=O)O)[C@@H](O[C@@H]4O[C@H](C(=O)O)[C@@H](O[C@@H]5O[C@H](C(=O)O)[C@@H](O[C@@H]6O[C@H](C(=O)O)[C@@H](O[C@@H]7O[C@H](C(=O)O)[C@@H](O)[C@H](O)[C@@H]7O)[C@H](O)[C@@H]6O)[C@H](O)[C@@H]5O)[C@H](O)[C@@H]4O)[C@H](O)[C@@H]3O)[C@H](O)[C@@H]2O)[C@H](O)[C@@H]1O [ManA7] |  |  | (10 ± 1.0) × 10^2 M^−1 | 0.028 | 0.08 | 0.15 | 0.20 | 0.21 | 0.24 |  |  |  | (2.6 ± 0.3) × 10^2 M^−1 | (4.2 ± 0.4) × 10^2 M^−1
